28 compounds from patent US20210393604A1, “NOVEL BENZIMIDAZOLONE COMPOUND AND PHARMACEUTICAL USE THEREOF” (Sumitomo Dainippon Pharma Co., Ltd., priority 2017, published 2021) can be followed below.

Sequence of Nav 1.7 (human SCN9A) (Q15858 whole entry): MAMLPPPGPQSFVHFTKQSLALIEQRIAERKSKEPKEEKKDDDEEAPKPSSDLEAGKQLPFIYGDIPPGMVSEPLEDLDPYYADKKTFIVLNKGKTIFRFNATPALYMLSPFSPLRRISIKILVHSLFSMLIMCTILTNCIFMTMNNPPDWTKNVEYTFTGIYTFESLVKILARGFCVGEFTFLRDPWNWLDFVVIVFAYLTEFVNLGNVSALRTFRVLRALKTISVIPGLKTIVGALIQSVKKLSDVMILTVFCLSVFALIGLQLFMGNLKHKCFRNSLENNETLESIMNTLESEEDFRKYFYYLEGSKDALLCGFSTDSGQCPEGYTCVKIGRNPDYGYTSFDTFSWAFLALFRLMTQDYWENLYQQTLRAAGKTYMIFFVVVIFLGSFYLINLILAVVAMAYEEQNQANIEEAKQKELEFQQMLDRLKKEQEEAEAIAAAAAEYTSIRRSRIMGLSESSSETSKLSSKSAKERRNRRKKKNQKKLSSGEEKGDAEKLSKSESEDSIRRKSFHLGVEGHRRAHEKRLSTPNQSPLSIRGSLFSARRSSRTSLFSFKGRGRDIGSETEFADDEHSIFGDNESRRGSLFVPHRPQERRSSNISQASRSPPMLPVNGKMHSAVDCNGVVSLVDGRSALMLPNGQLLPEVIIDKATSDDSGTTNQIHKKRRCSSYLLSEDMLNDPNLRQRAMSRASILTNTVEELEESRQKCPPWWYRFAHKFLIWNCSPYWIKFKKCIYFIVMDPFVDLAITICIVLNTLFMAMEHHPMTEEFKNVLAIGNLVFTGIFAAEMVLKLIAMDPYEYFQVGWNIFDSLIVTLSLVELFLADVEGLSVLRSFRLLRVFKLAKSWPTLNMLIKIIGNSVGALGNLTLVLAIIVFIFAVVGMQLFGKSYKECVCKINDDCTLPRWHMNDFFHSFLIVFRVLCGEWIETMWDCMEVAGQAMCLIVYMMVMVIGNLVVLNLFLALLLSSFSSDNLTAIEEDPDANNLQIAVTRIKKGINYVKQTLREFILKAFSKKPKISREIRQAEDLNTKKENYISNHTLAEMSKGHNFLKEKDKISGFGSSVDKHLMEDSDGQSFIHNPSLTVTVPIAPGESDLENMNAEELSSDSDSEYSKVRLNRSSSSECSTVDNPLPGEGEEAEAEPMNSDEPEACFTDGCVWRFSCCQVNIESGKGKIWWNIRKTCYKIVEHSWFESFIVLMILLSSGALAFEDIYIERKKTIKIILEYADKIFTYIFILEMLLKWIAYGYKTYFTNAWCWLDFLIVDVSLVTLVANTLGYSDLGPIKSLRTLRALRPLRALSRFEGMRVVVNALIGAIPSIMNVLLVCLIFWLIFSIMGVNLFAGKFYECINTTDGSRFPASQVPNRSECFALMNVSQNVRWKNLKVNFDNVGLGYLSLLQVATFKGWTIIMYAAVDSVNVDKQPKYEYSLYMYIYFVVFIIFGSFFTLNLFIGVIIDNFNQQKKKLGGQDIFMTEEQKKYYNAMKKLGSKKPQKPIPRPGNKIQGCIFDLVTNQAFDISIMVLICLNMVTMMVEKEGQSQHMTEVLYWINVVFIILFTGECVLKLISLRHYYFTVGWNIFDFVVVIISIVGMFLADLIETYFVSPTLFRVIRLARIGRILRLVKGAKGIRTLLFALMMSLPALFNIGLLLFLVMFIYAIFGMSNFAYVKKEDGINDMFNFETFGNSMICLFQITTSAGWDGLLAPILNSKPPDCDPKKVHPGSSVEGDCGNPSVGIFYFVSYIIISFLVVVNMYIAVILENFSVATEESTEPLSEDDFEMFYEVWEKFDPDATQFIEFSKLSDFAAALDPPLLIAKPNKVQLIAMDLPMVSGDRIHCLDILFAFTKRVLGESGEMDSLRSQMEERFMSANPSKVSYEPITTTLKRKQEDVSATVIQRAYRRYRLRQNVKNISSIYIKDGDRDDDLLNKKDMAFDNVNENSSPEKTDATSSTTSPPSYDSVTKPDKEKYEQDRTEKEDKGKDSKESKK

The assay has as its target Nav 1.7 (human SCN9A) (Homo sapiens, UniProt Q15858). As to the kind of experiment: Measurement of Na ion current by automated patch clamp assay in cells stably-expressing human SCN9A. The assay is classed as cell-based. The settings on record: compound concentration 10 μmol/L; peak current at 30th depolarizing pulse (10 Hz); holding potential inactivating 50% Nav 1.7 channel (around −60 mV); room temperature; read-out: Inhibitory rate (%) of Na ion current. The method, then: Measurement of Na Ion Current in Voltage-Dependent Na Channel Gene Expressed Cell
Nav 1.7 current was measured by automated patch clamp assay using cells stably-expressing human SCN9A.
Cells Stably-Expressing Human SCN9A
Tetracycline-induced cells stably-expressing SCN9A were obtained from ChanTest Corporation. The cells were passaged in Ham's F-12 medium containing […], 100 units/mL Penicillin-Streptomycin, 0.01 mg/mL Blasticidin, and 400 μg/mL Zeocin. The cell seeded on a glass slide was cultured in Ham's F-12 medium containing 1 μg/mL tetracycline, 1 μg/mL sodium butyrate, 10% fetal bovine serum, and 100 units/mL Penicillin-Streptomycin. Next day, the Na ion current was measured by automated patch clamp assay.
Electrophysiologic Measurement of Na Ion Current
The Na ion current was measured by automated patch clamp assay using the following extracellular solution and intracellular solution.
Extracellular solution (mmol/L): NaCl 130, MgCl2 2, CaCl2) 2, CdCl2 0.1, NiCl2 0.1, Tetraethylammonium-Cl 18, 4-aminopyridine 1, HEPES (4-(2-hydroxyethyl)-1-piperazineethanesulfonic acid) 10, (adjusting pH 7.4 with NaOH)
Intracellular solution (mmol/L): CsF 120, EGTA (ethylene glycol tetraacetic acid) 10, NaCl 15, HEPES 10, (adjusting pH 7.2 with CsOH)
The control of the stimulating pulse and the data acquisition were carried out using EPC10 amplifier and Patch Master Software (HEKA). Data were sampled at 20 kHz, and low-pass filtered at 2.9 kHz. All the measurements were carried out at room temperature. The holding potential was set at a potential inactivating 50% Nav 1.7 channel (around −60 mV), and depolarizing pulse of 20 milliseconds (around 0 mV) was given at a frequency of 10 Hz 30 times. […] The inhibitory rate of the Na ion current by the test compounds was calculated according to the following calculating formula with the peak current value generated by the 30th depolarizing pulse.
Inhibitory rate of Na ion current (%)=100×[(Peak current value in the absence of Test Compound)−(Peak current value in the presence of Test Compound)]/(Peak current value in the absence of Test Compound)
(Patch clamp records ionic current or voltage across a cell membrane.)
For `O=c1[nH]c2ccc(Oc3ccc(OC(F)(F)F)cc3)cc2n1CC1(O)COC1` [Example 5, 1-[(3-hydroxyoxetan-3-yl)methyl]-6-[4-(trifluoromethoxy)phenoxy]-1,3-dihydro-2H-benzimidazol-2-one], the inhibition at 10 µM came to 86%. As for `O=c1[nH]c2ccc(Oc3ccc(F)cc3)cc2n1CC1(O)COC1` [Example 7, 6-(4-fluorophenoxy)-1-[(3-hydroxyoxetan-3-yl)methyl]-1,3-dihydro-2H-benzimidazol-2-one], the inhibition at 10 µM worked out at 40%.

In the case of `CCn1c(=O)n(CC(C)(C)O)c2cc(Oc3ccc(C(F)(F)F)cn3)ccc21` [Example 12, 1-ethyl-3-(2-hydroxy-2-methylpropyl)-5-{[5-(trifluoromethyl)pyridin-2-yl]oxy}-1,3-dihydro-2H-benzimidazol-2-one], the inhibition at 10 µM came out at 14%. `CC(C)(O)Cn1c(=O)[nH]c2ccc(-c3ccc(C(F)(F)F)cn3)cc21` [Example 20, 1-(2-hydroxy-2-methylpropyl)-6-[5-(trifluoromethyl)pyridin-2-yl]-1,3-dihydro-2H-benzimidazol-2-one]: the inhibition at 10 µM amounted to 29%.

As for `Cn1c(=O)n(CC2(O)COC2)c2cc(Oc3ccc(F)cc3)ccc21` [Example 16, 5-(4-fluorophenoxy)-3-[(3-hydroxyoxetan-3-yl)methyl]-1-methyl-1,3-dihydro-2H-benzimidazol-2-one], the inhibition at 10 µM was 61%. For `C[C@H](n1c(=O)[nH]c2ccc(Oc3ccc(C(F)(F)F)cn3)cc21)C(C)(C)O` [Example 9, 1-[(2S)-3-hydroxy-3-methylbutan-2-yl]-6-{[5-(trifluoromethyl)pyridin-2-yl]oxy}-1,3-dihydro-2H-benzimidazol-2-one] the value was 27%; for `CC(C)(O)Cn1c(=O)[nH]c2ccc(-c3ccc(F)cc3)cc21` [Example 22, 6-(4-fluorophenyl)-1-(2-hydroxy-2-methylpropyl)-1,3-dihydro-2H-benzimidazol-2-one], 43%; for `CC(C)(O)Cn1c(=O)[nH]c2cc(Oc3ccc(C(F)(F)F)cn3)ccc21` [Example 26, 1-(2-hydroxy-2-methylpropyl)-5-{[5-(trifluoromethyl)pyridin-2-yl]oxy}-1,3-dihydro-2H-benzimidazol-2-one], 32%. For `O=c1[nH]c2ccc(Oc3ccc(C(F)(F)F)nc3)cc2n1CC1(O)COC1` [Example 3, 1-[(3-hydroxyoxetan-3-yl)methyl]-6-{[6-(trifluoromethyl)pyridin-3-yl]oxy}-1,3-dihydro-2H-benzimidazol-2-one] the value was 22%. Regarding `O=c1[nH]c2ccc(Oc3ccc(F)cc3)cc2n1[C@H]1CC[C@@H](O)CC1` [Example 11, 6-(4-fluorophenoxy)-1-(cis-4-hydroxycyclohexyl)-1,3-dihydro-2H-benzimidazol-2-one], the inhibition at 10 µM was found to be 65%. For `CC(C)(O)Cn1c(=O)[nH]c2ccc(-c3ccc(C(F)(F)F)nc3)cc21` [Example 19, 1-(2-hydroxy-2-methylpropyl)-6-[6-(trifluoromethyl)pyridin-3-yl]-1,3-dihydro-2H-benzimidazol-2-one] the value was 8%; for `CC(C)(O)Cn1c(=O)[nH]c2cc(Oc3ccc(OC(F)(F)F)cc3)ccc21` [Example 25, 1-(2-hydroxy-2-methylpropyl)-5-[4-(trifluoromethoxy)phenoxy]-1,3-dihydro-2H-benzimidazol-2-one], 42%; for `Cn1c(=O)n(CC2(O)COC2)c2ccc(Oc3ccc(OC(F)(F)F)cc3)cc21` [Example 28, 1-[(3-hydroxyoxetan-3-yl)methyl]-3-methyl-5-[4-(trifluoromethoxy)phenoxy]-1,3-dihydro-2H-benzimidazol-2-one], 39%. `CC(C)(O)Cn1c(=O)[nH]c2ccc(Oc3ccc(C(F)(F)F)cn3)cc21` [Example 1, 1-(2-hydroxy-2-methylpropyl)-6-{[5-(trifluoromethyl)pyridin-2-yl]oxy}-1,3-dihydro-2H-benzimidazol-2-one]: the inhibition at 10 µM is 33%. The figure for `Cn1c(=O)n(CC2(O)COC2)c2cc(Oc3ccc(C(F)(F)F)nc3)ccc21` [Example 15, 3-[(3-hydroxyoxetan-3-yl)methyl]-1-methyl-5-{[6-(trifluoromethyl)pyridin-3-yl]oxy}-1,3-dihydro-2H-benzimidazol-2-one] is 46%; for `O=c1[nH]c2cc(Oc3ccc(OC(F)(F)F)cc3)ccc2n1CC1(O)COC1` [Example 27, 1-[(3-hydroxyoxetan-3-yl)methyl]-5-[4-(trifluoromethoxy)phenoxy]-1,3-dihydro-2H-benzimidazol-2-one] it is 38%.

Regarding `O=c1[nH]c2ccc(Oc3ccc(C(F)(F)F)cn3)cc2n1[C@H]1CC[C@@H](O)CC1` [Example 4, 1-(cis-4-hydroxycyclohexyl)-6-{[5-(trifluoromethyl)pyridin-2-yl]oxy}-1,3-dihydro-2H-benzimidazol-2-one], the inhibition at 10 µM is 39%. Turning to `O=c1[nH]c2ccc(Oc3ccc(C(F)(F)F)cn3)cc2n1CC1(O)COC1` [Example 2, 1-[(3-hydroxyoxetan-3-yl)methyl]-6-{[5-(trifluoromethyl)pyridin-2-yl]oxy}-1,3-dihydro-2H-benzimidazol-2-one], the inhibition at 10 µM was 26%. As for `Cn1c(=O)n(CC2(O)COC2)c2cc(Oc3ccc(Cl)cc3)ccc21` [Example 18, 5-(4-chlorophenoxy)-3-[(3-hydroxyoxetan-3-yl)methyl]-1-methyl-1,3-dihydro-2H-benzimidazol-2-one], the inhibition at 10 µM came to 86%. For `CC(C)(O)Cn1c(=O)[nH]c2cc(-c3ccc(F)cc3)ccc21` [Example 24, 5-(4-fluorophenyl)-1-(2-hydroxy-2-methylpropyl)-1,3-dihydro-2H-benzimidazol-2-one] the value was 45%; for `Cn1c(=O)n(CC2(O)COC2)c2cc(Oc3ccc(C(F)(F)F)cn3)ccc21` [Example 14, 3-[(3-hydroxyoxetan-3-yl)methyl]-1-methyl-5-{[5-(trifluoromethyl)pyridin-2-yl]oxy}-1,3-dihydro-2H-benzimidazol-2-one], 39%. The figure for `Cn1c(=O)n(CC2(O)COC2)c2cc(Oc3ccc(OC(F)(F)F)cc3)ccc21` [Example 17, 3-[(3-hydroxyoxetan-3-yl)methyl]-1-methyl-5-[4-(trifluoromethoxy)phenoxy]-1,3-dihydro-2H-benzimidazol-2-one] is 87%; for `CC(C)(O)Cn1c(=O)[nH]c2cc(-c3ccc(C(F)(F)F)nc3)ccc21` [Example 23, 1-(2-hydroxy-2-methylpropyl)-5-[6-(trifluoromethyl)pyridin-3-yl]-1,3-dihydro-2H-benzimidazol-2-one] it is 36%; for `CC(C)(O)Cn1c(=O)[nH]c2ccc(-c3ccc(C(F)(F)F)cc3)cc21` [Example 21, 1-(2-hydroxy-2-methylpropyl)-6-[4-(trifluoromethyl)phenyl]-1,3-dihydro-2H-benzimidazol-2-one] it is 96%. Consider `CC(C)(O)Cn1c(=O)[nH]c2ccc(Oc3ccc(F)cc3)cc21` [Example 6, 6-(4-fluorophenoxy)-1-(2-hydroxy-2-methylpropyl)-1,3-dihydro-2H-benzimidazol-2-one], for which the inhibition at 10 µM was determined as 40%. `Cn1c(=O)n(CC(C)(C)O)c2cc(Oc3ccc(C(F)(F)F)cn3)ccc21` [Example 13, 3-(2-hydroxy-2-methylpropyl)-1-methyl-5-{[5-(trifluoromethyl)pyridin-2-yl]oxy}-1,3-dihydro-2H-benzimidazol-2-one]: the inhibition at 10 µM came out at 38%. The figure for `O=c1[nH]c2ccc(Oc3ccc(Cl)cc3)cc2n1CC1(O)COC1` [Example 8, 6-(4-chlorophenoxy)-1-[(3-hydroxyoxetan-3-yl)methyl]-1,3-dihydro-2H-benzimidazol-2-one] is 80%. For `C[C@H](n1c(=O)[nH]c2ccc(Oc3ccc(F)cc3)cc21)C(C)(C)O` [Example 10, 6-(4-fluorophenoxy)-1-[(2S)-3-hydroxy-3-methylbutan-2-yl]-1,3-dihydro-2H-benzimidazol-2-one] the value was 50%.
